The term IC50 denotes the concentration that gives 50% inhibition.

Each structure is given as a SMILES string. In brackets after ≈: the same amount, converted by molar mass.

The values below come from ChEMBL document CHEMBL1130682, “A concise synthesis and in vitro cytotoxicity of new labdane diterpenes” (Bioorg Med Chem Lett, 1998).

What all share (format): functional, cell-based
In one test the test system is B16. The experiment in a line: In vitro cytotoxicity of compound was measured on murine melanoma (B16) cells. Conditions: Mus musculus.
In the next test the test system is P388. The test can be described thus: In vitro cytotoxicity of compound was measured on murine lymphocytic leukemia (P-388) cells. Conditions: Mus musculus.
For another test, the system named is SNU1. The experiment in a line: In vitro cytotoxicity of compound was measured on human gastric adenocarcinoma (SNU-1) cells.

`C=C1CC[C@H]2C(C)(C)CCC[C@]2(C)[C@H]1CC(O)c1ccoc1` (some centres not stated): the figures for the 50% inhibitory concentration (IC50) with B16, with P388 and in the test on SNU1 were 47.2 µg/mL (≈ 156 µM), 3.6 µg/mL (≈ 11.9 µM) and 3.9 µg/mL (≈ 12.9 µM), respectively.

For the compound `C=C1CC[C@H]2C(C)(C)CCC[C@]2(C)[C@H]1C/C=C(\CO)CCO`, the IC50 in the test with B16 was found to be 28.9 µg/mL (≈ 94.3 µM); with P388, 6.3 µg/mL (≈ 20.6 µM); in the test on SNU1 it was 8.6 µg/mL (≈ 28.1 µM).

For `C=C1CC[C@H]2C(C)(C)CCC[C@]2(C)[C@H]1C/C=C1/CCOC1=O`, the IC50 was found to be 7.5 µg/mL (≈ 24.8 µM) with B16, 6.7 µg/mL (≈ 22.2 µM) in the test with P388 and 19.2 µg/mL (≈ 63.5 µM) in the test on SNU1.

As for `C=C1CC[C@H]2C(C)(C)CCC[C@]2(C)[C@H]1C/C=C(/C=O)CC=O`, the IC50 with B16 is 41.2 µg/mL (≈ 136 µM); in the test with P388, 4.1 µg/mL (≈ 13.6 µM); with SNU1, 12 µg/mL (≈ 39.7 µM).

Regarding `CC(=O)O[C@]1(C)CC[C@H]2C(C)(C)CCC[C@]2(C)[C@H]1CC=O`, the IC50 came to 31.9 µg/mL (≈ 108 µM) with B16, 6.9 µg/mL (≈ 23.4 µM) with P388 and 4.8 µg/mL (≈ 16.3 µM) with SNU1.

In the case of `CC1(C)CCC[C@@]2(C)[C@H]1CCC1(CO1)[C@@H]2C/C=C1/CCOC1=O` (some centres not stated), the 50% inhibitory concentration (IC50) is 84.5 µg/mL (≈ 265 µM) with B16, 12.3 µg/mL (≈ 38.6 µM) with P388 and 15.7 µg/mL (≈ 49.3 µM) in the test on SNU1.

For `CC(=O)O[C@]1(C)CC[C@H]2C(C)(C)CCC[C@]2(C)[C@H]1C/C=C1/CCOC1=O`, the IC50 in the test with B16 worked out at 11.3 µg/mL (≈ 31.2 µM); in the test with P388, 7.8 µg/mL (≈ 21.5 µM); in the test with SNU1 it was 12.3 µg/mL (≈ 33.9 µM).

Turning to `C=C1CC[C@H]2C(C)(C)CCC[C@]2(C)[C@H]1CC=O`, the values for the 50% inhibitory concentration (IC50) in the test with B16, in the test with P388 and in the test with SNU1 were 30.8 µg/mL (≈ 131 µM), 0.16 µg/mL (≈ 0.683 µM) and 3.9 µg/mL (≈ 16.6 µM), respectively.

Regarding `C=C1[C@H](O)C[C@H]2C(C)(C)CCC[C@]2(C)[C@H]1/C=C/c1ccoc1`, the IC50 stood at 27.3 µg/mL (≈ 90.9 µM) with B16, 10.3 µg/mL (≈ 34.3 µM) in the test on P388 and 4.8 µg/mL (≈ 16 µM) in the test with SNU1.

With `C=C1CC[C@H]2C(C)(C)CCC[C@]2(C)[C@H]1/C=C/c1ccoc1` [CORONARIN E], the values for the IC50 in the test on B16, with P388 and in the test on SNU1 were 18.8 µg/mL (≈ 66.1 µM), 10 µg/mL (≈ 35.2 µM) and 8 µg/mL (≈ 28.1 µM), respectively.

As for `COc1cccc2c1C(=O)c1c(O)c3c(c(O)c1C2=O)C[C@@](O)(C(=O)CO)C[C@@H]3O[C@H]1C[C@H](N)[C@H](O)[C@H](C)O1` [DOXORUBICIN], the figures for the IC50 in the test on P388 and with SNU1 were 0.09 µg/mL (≈ 0.166 µM) and 2.15 µg/mL (≈ 3.96 µM), respectively.

`CO[C@@]12[C@H](COC(N)=O)C3=C(C(=O)C(C)=C(N)C3=O)N1C[C@@H]1N[C@@H]12` [MITOMYCIN]: the IC50 in the test on P388 turned out to be 0.06 µg/mL (≈ 0.179 µM); in the test on SNU1 it was 2.32 µg/mL (≈ 6.94 µM).

Turning to `C=C[C@](C)(O)CC[C@@H]1[C@@]2(C)CCCC(C)(C)[C@@H]2CC[C@@]1(C)O` [SCLAREOL], the 50% inhibitory concentration (IC50) amounted to 28 µg/mL (≈ 90.8 µM) in the test with B16, 10.1 µg/mL (≈ 32.7 µM) in the test with P388 and 11.9 µg/mL (≈ 38.6 µM) in the test with SNU1.
